Entries after “also recorded” stand apart in the source; their conditions may differ. Like-named read-outs stand apart in the source and are kept apart here.
Assays:
[1] = test system: isolated tracheal muscle; settings: isolated guinea pig tracheal muscle, cited from earlier work
[2] = Single and multiple-dose open safety, tolerability and pharmacokinetic study of pemirolast potassium tablets, with linear Cmax extrapolation; assay type: in vivo, human; settings: linear extrapolation from 42.5 mg multiple dose
Description: This study comprised 18 healthy male subjects, 18-45 years of age, and was a single and multiple-dose, open study assessing the safety and tolerability of pemirolast potassium tablets (10 mg, Ulgixal™ tablets) with the doses 10, 30 and 50 mg (containing 8.5, 25.5 and 42.5 mg pemirolast free acid, respectively) b.i.d. (6 subjects in each dose group). The subjects received a single dose on the first day, then b.i.d. for three days and a single dose on the fifth day. The study was performed at the Berzelius Clinical Research Center AB in Linköping, Sweden. All laboratory pharmacokinetic analyses were performed by Quintiles AB, Uppsala, Sweden. Pharmacokinetic calculations were performed by Pharm Assist Sweden AB, Uppsala, Sweden. Mean Cmax data after multiple dosing are shown in and Table 1, and mean plasma concentrations over time on Day 5 are shown in FIG. 1. Based on these clinical data, Cmax predictions were made (assumption: Linear pharmacokinetics when extrapolating to higher dose levels) and are presented in Table 2.

[3] = test system: asthma patients challenged with mannitol inhalation; test: Clinical trial: mannitol challenge test in asthma patients (PD15, FEV1, safety); assay type: in vivo, human; settings: for long-term prophylactic effect on mannitol-induced asthma (mannitol PD15 at placebo visit): n=4
Description: This study comprised male and female asthma patients (18 to 46 years of age) with a positive asthma test (as determined by a mannitol challenge test (vide infra) performed within 15 days prior to enrolment at the first screening visit, Visit 1).
It was a double-blind, randomized, placebo-controlled, cross-over trial assessing the efficacy of orally administered single doses of placebo and 40 mg and 400 mg of pemirolast (immediate release tablets containing pemirolast sodium hemihydrate, as well as microcrystalline cellulose, mannitol, copovidone fine, croscarmellose sodium, anhydrous colloidal silica and magnesium stearate) in patients challenged with mannitol inhalation as described below.
The patients were exposed to the different treatments at three separate hospital visits at least 2 (mean 6.8, median 6) days apart. The data reported in FIGS. 5 and 6 below represent the patients that received placebo treatment at the first visit (n=8) or placebo at the second visit (after 40 mg at the first visit (n=4) or after 400 mg at the first visit (n=4)).
All doses were administered 3 hours before initiation of the mannitol challenge test to ensure peak plasma concentrations of pemirolast when the mannitol challenge was performed (blood samples for analysing plasma concentrations of pemirolast were collected 3 hours after drug administration).
There were 5 visits during the trial: A screening visit (Visit 1, within 15 days before Visit 2), three visits for treatment with Investigational Medicinal Products (IMP; pemirolast 40 or 400 mg, or placebo) (Visit 2-4, spaced at least 2 days apart), and a final follow-up visit by telephone (Visit 5, at least 2, but less than 4 days after Visit 4 and within 30 days of Visit 2).
The primary endpoint in the study was the Provocation Dose (PD) of mannitol resulting in a 15% fall in Forced Expiratory Volume during 1 second (FEV1; values given in Litres (L)) (PD15 for mannitol), which is recognised by regulatory authorities as an acceptable method to evaluate potential efficacy of asthma drugs (European Medicines Agency. Note for Guidance on Clinical Investigation of Medicinal Products for Treatment of Asthma, 2013).
The mannitol challenge test (Aridol®, Pharmaxis Ltd, Frenchs Forest, Sydney Australia) was performed as follows: application of nose clip and challenge with 0 (empty capsule acting as placebo), 5, 10, 20, 40, 80, 160, 160, 160 and 160 mg of mannitol via the Halermatic (the 80 and 160 mg doses were given as multiple doses of 40 mg capsules). After inhalation, subjects were instructed to hold their breath for 5 seconds.
At least 2 repeatable FEV1 manoeuvres were performed 60 seconds after each dose and the highest FEV1 was used in the calculation. […]

[4] = test system: prostaglandin D2; test: Urinary excretion of 11β-PGF2α (PGD2 metabolite, mast cell biomarker), EIA; assay type: in vivo, human; settings: for baseline production of PGD2 in asthmatics without ongoing attacks: n=22-24
Description: A secondary endpoint in the study was to analyse changes in urinary excretion of a metabolite (11β-prostaglandin (PG) F2α) of the lung mast cell mediator/biomarker prostaglandin D2. 11β-PGF2α analysis was performed in unextracted urine samples using a validated enzyme immunoassays (EIA) kit from Cayman Chemical, Ann Arbor, Mich., USA (Item no 516521). Absolute values of the mediators were expressed as nanograms 11β-PGF2α per millimole creatinine.
• a) Withdrawal from trial visit criteria to be checked • b) Urine sampling for 11β-PGF2α analysis • c) Blood sampling for haematology and blood biochemistry • d) Vital signs, physical examination, adverse events and concomitant medication 2) Administration of IMP 3 hours (+/−10 min) before the mannitol challenge 3) Before mannitol challenge: • a) <10 min before: Urine sampling for 11β-PGF2α analysis • b) <10 min before: Blood sampling for analysis of plasma pemirolast concentration 4) Mannitol test 3 hours (+/−10 min) after IMP administration 5) After mannitol challenge: • a) Urine sampling for 11β-PGF2α, 30 minutes after mannitol challenge • b) Pregnancy test (Visit 4 only, in addition to prior to enrolment) • e) Recording of concomitant medication just before sending the patient home • f) Reporting of AEs just before sending the subject home
Prostaglandin D2 (PGD2) is released from mast cells (e.g. in the lung) and is known as a mediator of asthmatic bronchoconstriction (Hardy et al, N. Engl. J. Med., 311, 209 (1984)). Urinary levels of the PGD2 metabolite 11β-PGF2α increase acutely during asthmatic attacks, including those induced by mannitol inhalation (Brannan et al, Eur. Respir. J., 22, 491 (2003)). This PGD2 metabolite is therefore used as a biomarker for mast cell activation in asthmatics.

[5] = twice daily 50 mg doses in humans; cited from earlier work
[6] = test system: human bronchial tissue; test: Bronchodilatory effect on pre-contracted isolated human bronchi (myograph, isometric tension); assay type: cell-based; settings: for effect on bronchoconstriction induced by carbachol: carbachol 3 μM; for effect on bronchoconstriction induced by histamine: histamine 1 μM
[7] = test system: antigen- and PAF-induced bronchoconstriction; settings: pre-administration, guinea pigs in vivo; cited from earlier work
[8] = Later pharmacokinetic studies in healthy volunteers (multiple doses); assay type: in vivo, human; settings: 80, 200 and 320 mg b.i.d. for three and a half days
[9] = test system: isolated guinea pig trachea; settings: trachea pre-constricted with acetylcholine, histamine, serotonin and barium chloride; cited from earlier work
[10] = target: hERG potassium channel (Homo sapiens, UniProt Q12809)
Description: This study was performed by PhysioStim, France, a GLP compliant facility.
The effects of pemirolast on hERG currents in HEK-293 cells stably expressing the hERG potassium channel were studied using patch-clamp technique.

[11] = parameters: species or system Beagles (dog); settings: dog, in vivo
Description: There were no major differences in kinetics between males and females.

Chain of hERG potassium channel (Q12809 whole entry): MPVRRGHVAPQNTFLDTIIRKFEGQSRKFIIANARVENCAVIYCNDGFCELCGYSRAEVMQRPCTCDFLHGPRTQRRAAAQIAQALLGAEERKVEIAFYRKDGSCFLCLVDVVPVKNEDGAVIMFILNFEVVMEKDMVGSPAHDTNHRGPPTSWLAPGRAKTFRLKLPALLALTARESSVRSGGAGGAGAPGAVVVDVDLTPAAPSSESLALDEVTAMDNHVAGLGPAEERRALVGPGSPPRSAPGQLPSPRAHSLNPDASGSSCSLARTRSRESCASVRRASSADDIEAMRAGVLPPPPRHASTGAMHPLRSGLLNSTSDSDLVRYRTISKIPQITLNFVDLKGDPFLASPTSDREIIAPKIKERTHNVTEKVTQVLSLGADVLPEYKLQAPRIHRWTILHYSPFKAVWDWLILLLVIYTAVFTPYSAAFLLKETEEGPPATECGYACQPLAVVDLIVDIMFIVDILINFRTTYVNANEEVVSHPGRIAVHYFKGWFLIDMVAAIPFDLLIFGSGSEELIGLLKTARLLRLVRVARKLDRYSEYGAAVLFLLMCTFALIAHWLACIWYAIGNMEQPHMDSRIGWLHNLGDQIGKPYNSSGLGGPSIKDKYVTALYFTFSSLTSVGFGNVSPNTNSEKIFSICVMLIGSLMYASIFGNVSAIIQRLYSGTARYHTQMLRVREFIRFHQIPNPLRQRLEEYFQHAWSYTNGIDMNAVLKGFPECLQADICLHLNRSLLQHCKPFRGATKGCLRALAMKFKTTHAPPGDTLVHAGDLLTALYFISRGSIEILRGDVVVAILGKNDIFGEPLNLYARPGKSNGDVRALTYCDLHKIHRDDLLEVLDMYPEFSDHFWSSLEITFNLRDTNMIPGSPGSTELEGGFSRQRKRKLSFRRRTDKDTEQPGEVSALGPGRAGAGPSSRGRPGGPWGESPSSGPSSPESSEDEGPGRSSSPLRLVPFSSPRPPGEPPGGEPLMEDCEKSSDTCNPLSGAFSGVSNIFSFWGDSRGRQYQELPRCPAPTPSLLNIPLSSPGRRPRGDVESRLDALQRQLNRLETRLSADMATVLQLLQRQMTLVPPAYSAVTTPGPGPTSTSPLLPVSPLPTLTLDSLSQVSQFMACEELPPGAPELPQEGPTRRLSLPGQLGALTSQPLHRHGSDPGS

Compound: Cc1cccn2c(=O)c(-c3nnn[nH]3)cnc12 [pemirolast]
- effect on bronchoconstriction ([1]; much higher concentrations than 10 μg/mL): some effect
- effect on bronchoconstriction induced by PGF2α ([1]; pre-treatment at 10 μg/mL): no effect
- effect on bronchoconstriction induced by leukotriene D4 ([1]; pre-treatment at 10 μg/mL): no effect
- Predicted Cmax ([2]; predicted for 125 mg): 10070 ng/mL
- Predicted Cmax ([2]; predicted for 200 mg): 16120 ng/mL
- Predicted Cmax ([2]; predicted for 400 mg): 32230 ng/mL
- mannitol PD15 ([3]; 3 hour pre-treatment, oral single dose (pemirolast sodium hemihydrate tablets), asthma patients): increased
- long-term prophylactic effect on mannitol-induced asthma (mannitol PD15 at placebo visit) ([3]; placebo treatment preceded by 40 mg dose p.o.): not seen
- long-term prophylactic effect on mannitol-induced asthma (mannitol PD15 at placebo visit) ([3]; single 400 mg dose p.o. given at least 3 days before placebo/mannitol): resulted in a prophylactic effect; also recorded: tolerated a much higher dose of mannitol
- adverse events, vital signs, physical examination, haematology and blood biochemistry ([3]; single oral doses 40 mg and 400 mg, asthma patients): no serious adverse events
- baseline production of PGD2 in asthmatics without ongoing attacks ([4]; 3 hours after administration of 40 mg): not
- baseline production of PGD2 in asthmatics without ongoing attacks ([4]; 3 hours after administration of 400 mg): significantly reduced
- urinary levels of the PGD2 biomarker (11β-PGF2α), 400 mg versus 40 mg previous treatment ([4]; patients treated at least 3 days before with 40 mg or 400 mg, 4+4 patients): did not differ
- direct bronchodilator activity when used clinically [5]: no direct bronchodilator activity
- effect on bronchoconstriction induced by U-46619 ([6]; 10 μg/mL pemirolast, 100 nM U-46619, n=2): partially reversed
- effect on bronchoconstriction induced by potassium chloride ([6]; 10 μg/mL pemirolast, KCl 30 mM, n=2): no effect
- effect on bronchoconstriction induced by carbachol ([6]; 10 μg/mL pemirolast, n=4): no effect
- effect on bronchoconstriction induced by histamine ([6]; 10 μg/mL pemirolast, n=3): no effect
- effect on bronchoconstriction induced by leukotriene D4 ([6]; 10 μg/mL pemirolast, leukotriene D4 1 nM, n=3): no effect
- reversal of PGF2α-induced bronchoconstriction (force) ([6]; 10 μg/ml pemirolast, PGF2α 3 μM pre-contraction, within 15 min, n=4, vehicle 6.8±3.1%): 21.5±4.4%
- reduction of PGF2α-induced bronchoconstriction (force) ([6]; 110 μg/mL pemirolast (cumulative), PGF2α 3 μM pre-contraction, within 40 min, n=4, vehicle 18.6±4.9%): 72.0±12.6%
- effect on bronchoconstriction induced by U-46619 ([6]; 110 μg/mL pemirolast, 100 nM U-46619): partial reversal
- effect on the response to KCl ([6]; 110 μg/mL pemirolast, KCl 30 mM): little effect
- effect on bronchoconstriction induced by carbachol ([6]; 110 μg/mL pemirolast): partial reversal
- effect on bronchoconstriction induced by histamine ([6]; 110 μg/mL pemirolast): partial reversal
- effect on the response to leukotriene D4 ([6]; 110 μg/mL pemirolast, leukotriene D4 1 nM): little effect
- PAF-induced bronchoconstriction [7]: inhibited
- antigen-induced bronchoconstriction [7]: inhibited
- safety and tolerability [8]: safe and well-tolerated
- potency relative to theophylline [9]: one seventh

Compound: Cc1cccn2c(=O)c(-c3nnn[nH]3)cnc12 [pemirolast potassium]
- decrease of hERG tail current amplitude ([10]; 2.7 μg/mL): 5.4%
- decrease of hERG tail current amplitude ([10]; 8 μg/mL): 10.2%
- decrease of hERG tail current amplitude ([10]; 26.6 μg/mL): 14.1%
- decrease of hERG tail current amplitude ([10]; 79.9 μg/mL): 19.0%
- safe chronic dose in dogs [11]: 75 mg/kg daily
